This is an account of results in ChEMBL document CHEMBL1201862, “PubChem BioAssay data set” (2004).

Among the test systems are A549; SK-OV-3; OVCAR-8; SN12C; ACHN; SF-539; EKVX; SR; K562; NCI-H460; 786-0; A498; NCI-H226; LOX IMVI.
What all share (assay): NCI-60 cell line screen, 48 h

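Following 48 hours of exposure in 96-well plates, responses at five concentrations were used to interpolate endpoints linearly. Here, GI50 denotes the concentration required for 50% inhibition of growth.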 The source made the active and inactive calls. Rule as the data show it: active = GI50 up to about 1.1 µM and inactive = higher. Bounds are passed on as bounds.

Turning to `COc1ccc(S(=O)(=O)N/N=C(\C)CN2C(=O)c3ccccc3C2=O)cc1OC`, the GI50 in the test on A549, in the test with SK-OV-3, in the test on OVCAR-8, in the test on SN12C, in the test on ACHN and in the test with SF-539 was > 100 µM (inactive) throughout. For the same compound, the GI50 in the test with EKVX, with SR, in the test on K562, in the test on NCI-H460, in the test on 786-0 and with A498 was > 100 µM (inactive) each time. For the same compound, the GI50 with NCI-H226 was > 100 µM (inactive).

Turning to `Cc1cc(C)c2c(c1C)CN1CN2Cc2c(C)c(C)cc(C)c21`, the GI50 in the test with A549 was 80.9 µM (inactive); in the test with SK-OV-3, > 100 µM (inactive); in the test with OVCAR-8, > 100 µM (inactive); in the test with SN12C, > 100 µM (inactive); with ACHN, > 100 µM (inactive); with SF-539, > 100 µM (inactive). For the same compound, the GI50 in the test on EKVX is > 100 µM (inactive); in the test with SR it was > 100 µM (inactive); in the test with K562, 8.75 µM (inactive); in the test with NCI-H460, 48.4 µM (inactive); in the test on 786-0, > 100 µM (inactive); in the test with LOX IMVI, > 100 µM (inactive). For the same compound, the GI50 with NCI-H226 was > 100 µM (inactive).

On to `N#CC1CCCCC1NC1(C#N)CCCCC1` (centres undefined), for which the GI50 with A549, in the test with SK-OV-3, in the test with OVCAR-8, in the test on SN12C, in the test on SF-539 and in the test with EKVX was > 100 µM (inactive) throughout. Besides, the GI50 in the test with K562, with 786-0, in the test on A498, with LOX IMVI and in the test on NCI-H226 was > 100 µM (inactive) in each case.

Take `Cc1cc(=O)oc2c1cc(OCC(=O)OCCN1CCCCC1)c1occ(C)c12`: the GI50 with A549, in the test with OVCAR-8, in the test on SN12C, in the test on ACHN, with SF-539 and in the test on EKVX was > 100 µM (inactive) in each case. Moreover, the GI50 in the test with K562, in the test with NCI-H460, with 786-0, with A498, with LOX IMVI and in the test with NCI-H226 was > 100 µM (inactive) each time.

On to `CC#CC1/C(=C\C(=O)OC)CCCC1O` (centres undefined), for which the GI50 with A549, in the test on SK-OV-3, in the test with OVCAR-8, in the test on SN12C, in the test on ACHN and in the test with SF-539 was > 100 µM (inactive) throughout. Moreover, the GI50 in the test with EKVX, with SR, with K562, in the test on NCI-H460, with 786-0 and in the test with A498 was > 100 µM (inactive) throughout. Further, the GI50 in the test on NCI-H226 is > 100 µM (inactive).

In the case of `CC(=O)NC(CCCNC(=O)OCc1ccccc1)C(=O)NCc1ccccc1` (centres undefined), the GI50 in the test with A549, in the test with SK-OV-3, with OVCAR-8, in the test on SN12C, with ACHN and in the test with SF-539 was > 100 µM (inactive) each time. The GI50 with EKVX, in the test on K562, in the test with NCI-H460, in the test on 786-0, with A498 and in the test with LOX IMVI was > 100 µM (inactive) each time. Also, the GI50 in the test on NCI-H226 is > 100 µM (inactive).

Consider `CNC(=O)N(CCCC(NC(C)=O)C(=O)NCc1ccccc1)Cc1ccccc1` (centres undefined), for which the GI50 with A549, in the test with SK-OV-3, with OVCAR-8, in the test on SN12C, in the test on ACHN and in the test on SF-539 was > 100 µM (inactive) each time. Besides, the GI50 in the test with EKVX, in the test on K562, with NCI-H460, in the test on 786-0, in the test with A498 and in the test with LOX IMVI was > 100 µM (inactive) throughout. The GI50 in the test on NCI-H226 is > 100 µM (inactive).

On to `COC(=O)CC[C@@H](NC(=O)C(C)NC(=O)COC1C(O)C(COC(=O)CCCCCCCCCCNC(=O)c2ccc([N+](=O)[O-])c3[nH]c4cc(Br)ccc4c(=O)c23)OC(OCc2ccccc2)C1NC(C)=O)C(N)=O` (some centres undefined), for which the GI50 with A549, in the test on SK-OV-3, in the test with OVCAR-8, in the test with SN12C, in the test with ACHN and with SF-539 was > 100 µM (inactive) in each case. Further, the GI50 is 17.3 µM (inactive) in the test with EKVX; 42.6 µM (inactive) in the test with SR; 44.4 µM (inactive) with K562; 57.3 µM (inactive) in the test on NCI-H460; > 100 µM (inactive) in the test on 786-0; 44.2 µM (inactive) in the test with LOX IMVI. Moreover, the GI50 in the test with NCI-H226 was 25.1 µM (inactive).

As to `CCCCCCc1cc2c(C)c(C)c(=O)oc2cc1OCCCOc1cc2oc(=O)c(C)c(C)c2cc1CCCCCC`, the GI50 in the test with A549, in the test on SK-OV-3, in the test with OVCAR-8, with SF-539, with EKVX and in the test on SR was > 100 µM (inactive) each time. The GI50 with K562, in the test on NCI-H460, in the test with 786-0, in the test on A498 and in the test with LOX IMVI was > 100 µM (inactive) throughout.

As to `CSc1ccc2c(cc1=O)[C@@H](NC(=O)c1cc(O)c(O)c(O)c1)CCc1cc(O)c(O)c(O)c1-2`, the GI50 with A549 was 27.7 µM (inactive); in the test on SK-OV-3, > 100 µM (inactive); in the test on OVCAR-8, 24 µM (inactive); in the test with SN12C, 18.1 µM (inactive); with ACHN it was 34.1 µM (inactive); in the test with SF-539, 24.7 µM (inactive). Besides, the GI50 in the test with EKVX was 23.2 µM (inactive); in the test on SR it was 18.6 µM (inactive); in the test on K562 it was 3.8 µM (inactive); in the test on NCI-H460, 20 µM (inactive); in the test with 786-0, 34.6 µM (inactive); with A498, > 100 µM (inactive). Also, in the test on NCI-H226, the GI50 was 16 µM (inactive).

With `Cc1ccc2nc3c(C(=O)NCCN(C)C)cccc3nc2c1`, the GI50 was 4.61 µM (inactive) in the test with A549; 14.8 µM (inactive) in the test on SK-OV-3; 3.48 µM (inactive) in the test with OVCAR-8; 3.42 µM (inactive) in the test with SN12C; 1.91 µM (inactive) in the test on ACHN; 4.2 µM (inactive) with SF-539. For the same compound, the GI50 in the test with EKVX was 5.65 µM (inactive); in the test on SR, 1.01 µM (active); in the test on K562, 2.47 µM (inactive); with 786-0, 11.5 µM (inactive); in the test with A498 it was 2.47 µM (inactive); in the test on LOX IMVI, 1.82 µM (inactive). Moreover, the GI50 in the test on NCI-H226 is 2.59 µM (inactive).

With `NC(=O)COc1ccc(Br)cc1Br`, the GI50 in the test on A549, with SK-OV-3, in the test with OVCAR-8, in the test with SN12C, in the test on ACHN and in the test with SF-539 was > 100 µM (inactive) in each case. In addition, the GI50 in the test with EKVX was 29.2 µM (inactive); with SR it was > 100 µM (inactive); in the test on K562 it was > 100 µM (inactive); with NCI-H460, > 100 µM (inactive); with 786-0, > 100 µM (inactive); with A498, > 100 µM (inactive). Also, the GI50 with NCI-H226 is > 100 µM (inactive).

For `N/N=C(\c1nc2ccc(Cl)cc2nc1O)C(O)c1ccc(Cl)c(Cl)c1` (centres undefined), the GI50 with A549 is > 100 µM (inactive); in the test with SK-OV-3, > 100 µM (inactive); in the test on OVCAR-8, 72.6 µM (inactive); in the test on SN12C, > 100 µM (inactive); with ACHN it was > 100 µM (inactive); with SF-539, > 100 µM (inactive). Further, the GI50 with EKVX was > 100 µM (inactive); in the test with SR, > 100 µM (inactive); in the test on K562, > 100 µM (inactive); in the test with NCI-H460 it was > 100 µM (inactive); with 786-0, 80.7 µM (inactive); in the test on LOX IMVI it was > 100 µM (inactive). Further, the GI50 in the test on NCI-H226 was > 100 µM (inactive).

For `C/C=C1\CN2CCc3c([nH]c4ccccc34)C2CC1C(=O)OC` (centres undefined), the GI50 with A549, in the test with SK-OV-3, with OVCAR-8, in the test with SN12C, with ACHN and in the test with SF-539 was > 322 µM (inactive) in each case. Further, the GI50 in the test on EKVX, in the test on SR, in the test on K562, in the test with NCI-H460, with 786-0 and in the test with LOX IMVI was > 322 µM (inactive) throughout. For the same compound, the GI50 with NCI-H226 is > 322 µM (inactive).

In the case of `S=c1c2ccccc2c(=S)n2n1CC=CC2`, the GI50 in the test with A549, in the test on SK-OV-3, with OVCAR-8, with SN12C, in the test with ACHN and with SF-539 was > 100 µM (inactive) throughout. The GI50 in the test with EKVX was > 100 µM (inactive); in the test with K562 it was > 100 µM (inactive); with 786-0, > 100 µM (inactive); in the test on A498, 76.2 µM (inactive); with LOX IMVI, > 100 µM (inactive); in the test on NCI-H226, > 100 µM (inactive).
